As usually defined, the IC50 is the midpoint of a concentration-inhibition curve. A higher IC50 goes with a need for much substance. For orientation: inhibition means the drop in the measured response relative to a control, in per cent.

The species named for one assay is Cavia porcellus. The assay is described as follows: Inhibition of AA (arachidonic acid) - induced contraction of GP lung tissue (n=4). The class given is functional.
In assay [1] the target is T1, Phospholipase A2, membrane associated (Homo sapiens) (UniProt P14555).
T1 sequence (whole entry): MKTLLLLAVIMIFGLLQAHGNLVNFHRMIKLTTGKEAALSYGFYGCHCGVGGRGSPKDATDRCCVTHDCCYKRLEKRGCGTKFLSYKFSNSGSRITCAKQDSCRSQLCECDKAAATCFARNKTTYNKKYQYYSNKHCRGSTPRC
The assay can be described thus: Inhibition of PLA2 induced contraction of GP lung tissue (Guinea pig) (n=4). Format: functional, tissue-based. To be noted: Cavia porcellus, target entry is the homologue from another species.

Assay [2] deals with T2, Phospholipase A2, membrane associated (Homo sapiens, UniProt P14555).
T2 sequence (P14555 whole entry): T1 sequence (whole entry)
The assay can be described thus: Inhibition of Human Nonpancreatic Secretory Phospholipase A2 through Chromogenic assay. The class given is functional.

Assay [3] addresses T1, Phospholipase A2, membrane associated (Homo sapiens). The assay can be described thus: Mole fraction as PLA2 IC50 concentration divided by total lipid concentration (1230 uM). The class given is functional.
For assay [4] the target is unchanged. The assay is described as follows: Inhibition of Human Nonpancreatic Secretory PLA2 through Chromogenic assay at 47ug/mL. Format: functional.

`COc1ccc2c(c1)c(CC(=O)NN)c(Br)n2Cc1ccccc1` displayed an ED50 in the assay filed under Cavia porcellus of 7.32 µM. The compound further came in with a Kb in assay [1] of 0.76 µM.

As to `COc1ccc2c(c1)c(Cc1nnn[nH]1)c(C)n2Cc1ccccc1`, the half-maximal inhibitory concentration (IC50) in assay [2] was determined as 84.7 µM.

Regarding `COc1ccc2c(c1)c(CC(=O)NN)cn2Cc1ccccc1`, the ED50 in the assay listed under Cavia porcellus is more than 10 µM. This compound had an IC50 in assay [2] of 4.9 µM. For the same compound, in assay [1], the Kb was found to be 5.64 µM.

In the case of `COc1ccc2c(c1)c(CC(=O)NN)c(C)n2Cc1ccccc1-c1ccccc1`, in the assay filed under Cavia porcellus, the ED50 is more than 10 µM. This compound gave a Kb in assay [1] of more than 10 µM.

For `CCc1c(C(=O)C(N)=O)c2c(OC)cccc2n1Cc1ccccc1`, the IC50 in assay [2] was determined as 0.55 µM.

`COc1ccc2c(c1)c(CC(=O)NN)c(C)n2Cc1cccc(Cl)c1` showed an ED50 in the assay filed under Cavia porcellus of more than 30 µM. In addition, the midpoint of inhibition in assay [2], the IC50, lay at 1.36 µM. Further, the Kb in assay [1] turned out to be 1.13 µM.

In the case of `CNC(=O)Cc1c(C)n(Cc2ccccc2)c2ccc(OC)cc12`, the half-maximal inhibitory concentration (IC50) in assay [2] turned out to be 142 µM.

`Cc1c(CC(=O)NN)c2cc(C(=O)O)ccc2n1Cc1cccc(Cl)c1` showed an ED50 in the assay filed under Cavia porcellus of more than 30 µM. The same compound showed a Kb in assay [1] of 1.39 µM.

For `COc1ccc2c(c1)c(CC#N)c(C)n2Cc1ccccc1`, the Mole fraction result in assay [3] is on record as “Mole fraction as PLA2 IC50 concentration divided by total lipid concentration (1230 uM)”. In addition, the inhibition in assay [4] stood at 45%.

Turning to `COc1ccc2c(c1)c(CC(=N)S)c(C)n2Cc1ccccc1`, in assay [2], the concentration for half-maximal inhibition (IC50) worked out at 74.1 µM.

As for `COc1ccc2c(c1)c(C(=O)C(N)=O)c(C)n2Cc1ccccc1`, the IC50 in assay [2] is 1.23 µM.

For the compound `COc1ccc2c(C(=O)C(N)=O)c(C)n(Cc3ccccc3)c2c1`, the half-inhibitory concentration (IC50) in assay [2] came to 1.77 µM.

For the compound `COc1ccc2c(c1)c(CC(=O)NN)c(Cl)n2Cc1ccccc1`, the ED50 in the assay filed under Cavia porcellus is 9.37 µM. Also, the Kb in assay [1] stood at 0.85 µM.

On to `COc1ccc2c(c1)c(CCC(N)=O)c(C)n2Cc1ccccc1`, for which inhibition in assay [2] was half-maximal at 28.1 µM (IC50).

On to `COc1ccc2c(c1)c(CC(=N)N)c(C)n2Cc1ccccc1`, for which 64.7 µM corresponded to half-maximal inhibition in assay [2] (IC50).

In assay [2], `COc1ccc2c(c1)c(CC(=O)O)c(C)n2Cc1ccccc1` displayed a concentration for half-maximal inhibition (IC50) of 13.6 µM.

Regarding `COc1cccc2c1c(CC(=O)NN)c(C)n2Cc1cccc(Cl)c1`, half-maximal inhibition in assay [2] (IC50) required 0.23 µM.

The compound `COc1ccc2c(c1)c(CC(N)=O)c(C)n2CC1CCCCC1` yielded an ED50 in the assay filed under Cavia porcellus of 25.65 µM. In assay [1], the Kb was found to be 22.5 µM.

Regarding `CCc1c(C(=O)C(N)=O)c2c([N+](=O)[O-])cccc2n1Cc1ccccc1`, the IC50 in assay [2] worked out at 37.8 µM.

Turning to `Cc1c(CC(=O)NN)c2ccccc2n1-c1ccccc1`, the IC50 in assay [2] was 38.2 µM.

As to `COc1ccc2c(c1)c(CC(=O)NN)c(C)n2Cc1cccc(-c2ccccc2)c1`, the Kb in assay [1] came out at 22.6 µM.

`CCc1c(CC(=O)NN)c2cc(OC)ccc2n1Cc1ccccc1-c1ccccc1` had an ED50 in the assay filed under Cavia porcellus of more than 30 µM. In assay [2], the concentration for half-maximal inhibition (IC50) was 2.35 µM. The Kb in assay [1] came to 30.1 µM.

Turning to `Cc1c(CC(N)=O)c2cc([N+](=O)[O-])ccc2n1Cc1ccccc1`, 1.51 µM corresponded to half-maximal inhibition in assay [2] (IC50).

`CCc1c(C(=O)C(N)=O)c2cc(OC)ccc2n1Cc1ccccc1` had an IC50 in assay [2] of 2.56 µM.

`CCCCCCCCCCn1c(C)c(CC(N)=O)c2cc(OC)ccc21`: the IC50 in assay [2] was 9.47 µM.

On to `COc1cccc2c1c(CC(=O)NN)c(C)n2Cc1ccccc1`, for which the 50% inhibitory concentration (IC50) in assay [2] is 0.55 µM.

Consider `COc1ccc2c(c1)c(CC(=O)NN)c(C)n2Cc1cccc(O)c1`, for which the ED50 in the assay listed under Cavia porcellus is more than 30 µM. For the same compound, in assay [1], the Kb came to 5.96 µM.

Take `COc1ccc2c(c1)c(CC(N)=O)c(SC)n2Cc1ccccc1`: in assay [2], 0.45 µM corresponded to half-maximal inhibition (IC50). The compound also had a Kb in assay [1] of 7.93 µM.

Take `COc1cccc(Cn2c(C)c(CC(=O)NN)c3cc(OC)ccc32)c1`: the IC50 in assay [2] was determined as 2.12 µM.

Take `COc1ccc2c(C(O)C(N)=O)c(C)n(Cc3ccccc3)c2c1` (stereo unspecified): the IC50 in assay [2] was found to be 121 µM.

With `CCc1c(CC(=O)NN)c2cc(OC)ccc2n1Cc1ccccc1`, the ED50 in the assay listed under Cavia porcellus was more than 30 µM. The Kb in assay [1] came out at 2.04 µM.

Regarding `COc1ccc2c(c1)c(CC(N)=O)c(C)n2C(=O)c1ccccc1`, in assay [2], the IC50 turned out to be 7.21 µM.

`COc1ccc2c(c1)c(CC(N)=O)c(C)n2Cc1cccc(Cl)c1` came in with a half-inhibitory concentration (IC50) in assay [2] of 0.91 µM.

As to `Cc1c(CC(N)=O)c2cc(N)ccc2n1Cc1ccccc1`, the ED50 in the assay filed under Cavia porcellus worked out at 14.5 µM. In addition, the Kb in assay [1] was found to be 1.98 µM.

Compound `COC(=O)Cc1c(C)n(Cc2ccccc2)c2ccc(OC)cc12` had an IC50 in assay [2] of 116 µM.

On to `COc1cccc2c1c(CC(N)=O)c(C)n2Cc1cccc(Cl)c1`, for which, in assay [2], 1.38 µM corresponded to half-maximal inhibition (IC50).

For `CCCCCCCCCCn1c(C)c(CC(=O)NN)c2cc(OC)ccc21`, the concentration for half-maximal inhibition (IC50) in assay [2] was 9.43 µM.

With `CCc1c(C(O)C(N)=O)c2c(OC)cccc2n1Cc1ccccc1` (stereo unspecified), the IC50 in assay [2] was 53 µM.

Consider `COc1ccc2c(c1)c(CC(=O)NN)c(SC)n2Cc1ccccc1`, for which, in assay [2], half-maximal inhibition (IC50) required 0.62 µM.

Regarding `COc1ccc2c(c1)c(C(O)C(N)=O)c(C)n2Cc1ccccc1` (stereo unspecified), the IC50 in assay [2] was 20.1 µM.

In assay [2], `COc1ccc2c(c1)c(CC(=O)NN)c(C)n2C(c1ccccc1)c1ccccc1` yielded a 50% inhibitory concentration (IC50) of 40.2 µM.

In the case of `COc1ccc2c(c1)c(CC(=O)NN)c(C)n2Cc1cccc(N)c1`, the IC50 in assay [2] amounted to 4.32 µM.

In the case of `CCCc1c(CC(=O)NN)c2cc(OC)ccc2n1Cc1ccccc1`, the ED50 in the assay listed under Cavia porcellus is more than 30 µM. Also, in assay [1], the Kb was 27.1 µM.

In assay [2], `CCC(C(=O)NN)c1c(C)n(Cc2ccccc2)c2ccc(OC)cc12` (stereo unspecified) gave a half-maximal inhibitory concentration (IC50) of 24.2 µM.

For `COc1ccc2c(c1)c(CC(=O)NN)c(C1CC1)n2Cc1ccccc1`, in assay [2], 0.39 µM corresponded to half-maximal inhibition (IC50).

Compound `CCCCCCC(C(=O)NN)c1c(C)n(Cc2ccccc2)c2ccc(OC)cc12` (stereo unspecified) returned a 50% inhibitory concentration (IC50) in assay [2] of 101 µM.

As to `CCc1c(CC(N)=O)c2cc(OC)ccc2n1Cc1ccccc1`, the ED50 in the assay filed under Cavia porcellus was more than 30 µM. In assay [1], this compound returned a Kb of 5.91 µM.

On to `CONC(=O)Cc1c(C)n(Cc2ccccc2)c2ccc(OC)cc12`, for which 40 µM corresponded to half-maximal inhibition in assay [2] (IC50).

With `CCc1c(CC(N)=O)c2c(OC)cccc2n1Cc1ccccc1`, the midpoint of inhibition in assay [2], the IC50, lay at 1.18 µM.

In the case of `COc1ccc2c(c1)c(C(C)C(=O)NN)c(C)n2Cc1ccccc1` (stereo unspecified), the IC50 in assay [2] is 32.6 µM.

Turning to `COc1ccc2c(c1)c(CC(=O)NN)c(C)n2Cc1cccc(OCc2ccccc2)c1`, the ED50 in the assay filed under Cavia porcellus is more than 30 µM. The compound also registered a Kb in assay [1] of 3.86 µM.

Turning to `COc1ccc2c(c1)c(CC(N)=O)c(C)n2CCCc1ccccc1`, the IC50 in assay [2] worked out at 11.1 µM.

The values above are taken from ChEMBL document CHEMBL1129457, “Indole inhibitors of human nonpancreatic secretory phospholipase A2. 1. Indole-3-acetamides” (J Med Chem, 1996).
